Test results taken from ChEMBL document CHEMBL5038643, “Phytochemical Investigation of the Roots of Ipomoea asarifolia and Antiproliferative Activity of the Isolated Compounds against Multiple Myeloma Cells” (J Nat Prod, 2022).
One block for each compound: values may come before it. The source made the active and inactive calls. The rule behind the calls is not given here.

What was measured:
RPMI-8226 [1] = assay: Antiproliferative activity against human RPMI 8226 cells assessed as reduction in cell viability measured after 72 hrs by XTT assay; assay type: functional, cell-based; conditions: RPMI-8226, 72 h
MM1.S [2] = assay: Antiproliferative activity against dexamethasone-sensitive human MM.1S cells assessed as reduction in cell viability at 10 uM measured after 72 hrs by XTT assay; assay type: functional, cell-based
MM.1R = assay: Antiproliferative activity against dexamethasone-resistant human MM.1R cells assessed as reduction in cell viability at 10 uM measured after 72 hrs by XTT assay; assay type: functional, cell-based
MM1.S [3] = assay: Antiproliferative activity against dexamethasone-sensitive human MM.1S cells assessed as reduction in cell viability measured after 72 hrs by XTT assay; assay type: functional, cell-based
[4] = Antiproliferative activity against dexamethasone-resistant human MM.1R cells assessed as reduction in cell viability measured after 72 hrs by XTT assay; assay type: functional, cell-based
B-cell = assay: Cytotoxicity against human B lymphocyte assessed as reduction in cell viability at 50 uM measured after 72 hrs by XTT assay; assay type: toxicity, cell-based
RPMI-8226 [5] = assay: Antiproliferative activity against human RPMI 8226 cells assessed as reduction in cell viability at 10 uM measured after 72 hrs by XTT assay; assay type: functional, cell-based

SMILES: CCCCCCCCCCCCCCCCCCCCOC(=O)/C=C/c1ccc(O)cc1
- Activity (MM1.S [2]): inactive
- Activity (MM.1R): inactive

SMILES: CCCCCCCCCCCCCCCCCCOC(=O)/C=C/c1ccc(O)c(O)c1
- IC50 (RPMI-8226 [1]): 9.4 µM
- IC50 (MM1.S [3]): > 10 µM
- IC50 [4]: > 10 µM
- Activity (MM1.S [2]): inactive
- Activity (MM.1R): inactive
- Activity (B-cell): Non-Toxic

SMILES: CCCCCCCCCCCCCCCCOC(=O)/C=C/c1ccc(O)cc1
- Activity (MM1.S [2]): inactive
- Activity (MM.1R): inactive

SMILES: CCCCCCCCCCCCCCCCOC(=O)/C=C/c1ccc(O)c(O)c1
- IC50 (RPMI-8226 [1]): 3 µM
- IC50 (MM1.S [3]): > 10 µM
- IC50 [4]: > 10 µM
- Activity (MM1.S [2]): inactive
- Activity (MM.1R): inactive
- Activity (B-cell): Non-Toxic

SMILES: C[C@H](CO)CC(=O)C[C@@H](C)CCC(=O)c1ccoc1
- IC50 (RPMI-8226 [1]): > 10 µM
- Activity (MM1.S [2]): inactive
- Activity (MM.1R): inactive

SMILES: CC(C)C[C@H](NC(=O)[C@H](Cc1ccccc1)NC(=O)c1cnccn1)B(O)O [BORTEZOMIB]
- IC50 (RPMI-8226 [1]): 0.0045 µM
- IC50 (MM1.S [3]): 0.0026 µM
- IC50 [4]: 0.0048 µM
- Activity (MM1.S [2]): inactive
- Activity (MM.1R): inactive

SMILES: CCCCCCCCCCCCCCCCCCOC(=O)/C=C/c1ccc(O)cc1
- Activity (MM1.S [2]): inactive
- Activity (MM.1R): inactive

Second part, led by results:

- IC50 (RPMI-8226 [1]): > 10 µM
SMILES: CCCCCCCCCCCC(=O)O[C@H]1[C@H](O[C@@H]2[C@H]3OC(=O)CCCCCCCCC[C@H](CCCCC)O[C@@H]4O[C@H](C)[C@H](O)[C@H](O)[C@H]4O[C@H](O[C@H]2C)[C@@H]3O)O[C@@H](C)[C@H](O[C@@H]2O[C@@H](C)[C@H](OC(=O)[C@@H](C)CC)[C@@H](O)[C@H]2O)[C@H]1O[C@@H]1O[C@@H](C)[C@H](O)[C@@H](O)[C@H]1O [PESCAPREIN III]
- Activity (MM1.S [2]): inactive
- Activity (MM.1R): inactive

- IC50 (RPMI-8226 [1]): 7.7 µM
- IC50 (MM1.S [3]): > 10 µM
SMILES: CCCCCCCCCC(=O)O[C@H]1[C@H](O[C@@H]2[C@H]3OC(=O)CCCCCCCCC[C@H](CCCCC)O[C@@H]4O[C@H](C)[C@H](O)[C@H](O)[C@H]4O[C@H](O[C@H]2C)[C@@H]3O)O[C@@H](C)[C@H](O[C@@H]2O[C@@H](C)[C@H](OC(=O)[C@@H](C)CC)[C@@H](O)[C@H]2O)[C@H]1O[C@@H]1O[C@@H](C)[C@H](O)[C@@H](O)[C@H]1O [STOLONIFERIN III]
- IC50 [4]: > 10 µM
- Activity (MM1.S [2]): inactive
- Activity (MM.1R): inactive

- IC50 (RPMI-8226 [1]): > 10 µM
SMILES: CCCCCCCCCCCC(=O)O[C@H]1[C@H](O[C@@H]2[C@H]3OC(=O)CCCCCCCCC[C@H](CCCCC)O[C@@H]4O[C@H](C)[C@H](O)[C@H](O)[C@H]4O[C@H](O[C@H]2C)[C@@H]3O)O[C@@H](C)[C@H](O[C@@H]2O[C@@H](C)[C@H](OC(=O)CCCCCCC)[C@@H](O)[C@H]2O)[C@H]1O[C@@H]1O[C@@H](C)[C@H](O)[C@@H](O)[C@H]1O
- Activity (RPMI-8226 [5]): inactive
- Activity (MM1.S [2]): inactive
- Activity (MM.1R): inactive

- IC50 (RPMI-8226 [1]): > 10 µM
SMILES: CCCCCCCCCC(=O)O[C@H]1[C@H](O[C@@H]2[C@H]3OC(=O)CCCCCCCCC[C@H](CCCCC)O[C@@H]4O[C@H](C)[C@H](O)[C@H](O)[C@H]4O[C@H](O[C@H]2C)[C@@H]3O)O[C@@H](C)[C@H](O[C@@H]2O[C@@H](C)[C@H](OC(=O)C(C)C)[C@@H](OC(=O)/C=C/c3ccccc3)[C@H]2O)[C@H]1O[C@@H]1O[C@@H](C)[C@H](O)[C@@H](O)[C@H]1O [PESCAPREIN XXVI]
- Activity (MM1.S [2]): inactive
- Activity (MM.1R): inactive

- IC50 (RPMI-8226 [1]): > 10 µM
SMILES: CCCCCCCCCCCC(=O)O[C@H]1[C@H](O[C@@H]2[C@H]3OC(=O)CCCCCCCCC[C@H](CCCCC)O[C@@H]4O[C@H](C)[C@H](O)[C@H](O)[C@H]4O[C@H](O[C@H]2C)[C@@H]3O)O[C@@H](C)[C@H](O[C@@H]2O[C@@H](C)[C@H](OC(=O)C(C)C)[C@@H](OC(=O)/C=C/c3ccccc3)[C@H]2O)[C@H]1O[C@@H]1O[C@@H](C)[C@H](O)[C@@H](O)[C@H]1O [PESCAPREIN XXV]
- Activity (MM1.S [2]): inactive
- Activity (MM.1R): inactive

- IC50 (RPMI-8226 [1]): > 10 µM
SMILES: CCCCCCCCCC(=O)O[C@H]1[C@H](O[C@@H]2[C@H]3OC(=O)CCCCCCCCC[C@H](CCCCC)O[C@@H]4O[C@H](C)[C@H](O)[C@H](O)[C@H]4O[C@H](O[C@H]2C)[C@@H]3O)O[C@@H](C)[C@H](O[C@@H]2O[C@@H](C)[C@H](OC(=O)[C@@H](C)CC)[C@@H](OC(=O)/C=C/c3ccccc3)[C@H]2O)[C@H]1O[C@@H]1O[C@@H](C)[C@H](O)[C@@H](O)[C@H]1O [PESCAPREIN XXIII]
- Activity (MM1.S [2]): inactive
- Activity (MM.1R): inactive

- IC50 (RPMI-8226 [1]): > 10 µM
SMILES: CCCCCCCCCCCC(=O)O[C@H]1[C@H](O[C@@H]2[C@H]3OC(=O)CCCCCCCCC[C@H](CCCCC)O[C@@H]4O[C@H](C)[C@H](O)[C@H](O)[C@H]4O[C@H](O[C@H]2C)[C@@H]3O)O[C@@H](C)[C@H](O[C@@H]2O[C@@H](C)[C@H](OC(=O)[C@@H](C)CC)[C@@H](OC(=O)/C=C/c3ccccc3)[C@H]2O)[C@H]1O[C@@H]1O[C@@H](C)[C@H](O)[C@@H](O)[C@H]1O [PESCAPREIN XXI]
- Activity (MM1.S [2]): inactive
- Activity (MM.1R): inactive

- IC50 (RPMI-8226 [1]): 10.8 µM
- IC50 (MM1.S [3]): > 10 µM
SMILES: CCCCCCCCCCCC(=O)O[C@H]1[C@H](O[C@@H]2[C@H]3OC(=O)CCCCCCCCC[C@H](CCCCC)O[C@@H]4O[C@H](C)[C@H](O)[C@H](O)[C@H]4O[C@H](O[C@H]2C)[C@@H]3O)O[C@@H](C)[C@H](O[C@@H]2O[C@@H](C)[C@H](OC(=O)CCCCC)[C@@H](O)[C@H]2O)[C@H]1O[C@@H]1O[C@@H](C)[C@H](O)[C@@H](O)[C@H]1O [PESCAPREIN IV]
- IC50 [4]: > 10 µM
- Activity (MM1.S [2]): inactive
- Activity (MM.1R): inactive
